Experimental data as given in PubChem BioAssay AID248 (DTP/NCI, 2004).
Values joined by “and” are separate entries in the source; they are usually repeats but may differ in a detail not shown here. Equal entries are not always repeated. Toxic doses and inconclusive results are not listed. Cut-off read from the data, not from the text of the source: active = T/C of 150% or more; inactive = T/C below 125%.

Test system: L1210 leukemia ip in BDF1 mice, survival T/C
Experiment: NCI In Vivo Anticancer Drug Screen. Data for tumor model L1210 Leukemia (intraperitoneal) in B6D2F1 (BDF1) mice
Conditions: endpoint: mean survival time, higher = longer survival
Method in brief: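 Antitumor effect is assessed in tumor-bearing animals. Survival in the compound arm is compared with a vehicle-dosed control arm and expressed as their quotient.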

[1] = dose: 25.0 mg/kg/injection, schedule: Q01DX009 (ip), vehicle: saline
[2] = dose: 50.0 mg/kg/injection, schedule: Q01DX009 (ip), vehicle: saline
[3] = dose: 100.0 mg/kg/injection, schedule: Q01DX009 (ip), vehicle: Klucel (hydroxypropylcellulose) (HPC)
[4] = dose: 200.0 mg/kg/injection, schedule: Q01DX009 (ip), vehicle: Klucel (hydroxypropylcellulose) (HPC)
[5] = dose: 400.0 mg/kg/injection, schedule: Q01DX009 (ip), vehicle: Klucel (hydroxypropylcellulose) (HPC)
[6] = dose: 100.0 mg/kg/injection, schedule: Q04DX002 (ip), vehicle: Klucel (hydroxypropylcellulose) (HPC)
[7] = dose: 200.0 mg/kg/injection, schedule: Q04DX002 (ip), vehicle: Klucel (hydroxypropylcellulose) (HPC)
[8] = dose: 400.0 mg/kg/injection, schedule: Q04DX002 (ip), vehicle: Klucel (hydroxypropylcellulose) (HPC)
[9] = dose: 100.0 mg/kg/injection, schedule: Q04DX003 (ip), vehicle: Klucel (hydroxypropylcellulose) (HPC)
[10] = dose: 200.0 mg/kg/injection, schedule: Q04DX003 (ip), vehicle: Klucel (hydroxypropylcellulose) (HPC)
[11] = dose: 400.0 mg/kg/injection, schedule: Q04DX003 (ip), vehicle: Klucel (hydroxypropylcellulose) (HPC)
[12] = dose: 100.0 mg/kg/injection, schedule: Q04DX003 (ip), vehicle: saline with Tween-80
[13] = dose: 100.0 mg/kg/injection, schedule: Q01DX009 (ip), vehicle: saline
[14] = dose: 100.0 mg/kg/injection, schedule: Q04DX003 (ip), vehicle: saline
[15] = dose: 200.0 mg/kg/injection, schedule: Q04DX003 (ip), vehicle: saline with Tween-80
[16] = dose: 400.0 mg/kg/injection, schedule: Q04DX003 (ip), vehicle: saline with Tween-80
[17] = dose: 100.0 mg/kg/injection, schedule: Q01DX001 (ip), vehicle: other
[18] = dose: 200.0 mg/kg/injection, schedule: Q01DX001 (ip), vehicle: other

Measured: T/C

CCC1OC(=O)CC(O)C(C)C(OC2OC(C)CC(N(C)C)C2O)C(CC=O)CC(C)C(=O)/C=C/C2(C)OC2C1C (stereo unspecified)
inactive: dose: 75.0 mg/kg/injection, schedule: Q01DX009 (ip), vehicle: saline with Tween-80 93 % of control | dose: 150.0 mg/kg/injection, schedule: Q01DX009 (ip), vehicle: saline with Tween-80 102 % of control

O=C(Nc1ccc(C2=NCCN2)cc1)Nc1cccc(C(=O)Nc2ccc(C3=NCCN3)cc2)c1
inactive: dose: 1.0 mg/kg/injection, schedule: Q01DX Z (ip), vehicle: carboxymethylcellulose (CMC) 106 % of control | dose: 2.0 mg/kg/injection, schedule: Q01DX Z (ip), vehicle: carboxymethylcellulose (CMC) 117 % of control | dose: 3.75 mg/kg/injection, schedule: Q01DX Z (ip), vehicle: saline 97 % of control | dose: 4.0 mg/kg/injection, schedule: Q01DX Z (ip), vehicle: carboxymethylcellulose (CMC) 122 % of control | dose: 7.5 mg/kg/injection, schedule: Q01DX Z (ip), vehicle: saline 100 % of control | dose: 15.0 mg/kg/injection, schedule: Q01DX Z (ip), vehicle: saline 110 % of control | dose: 120.0 mg/kg/injection, schedule: Q01DX Z (oral), vehicle: saline 101 % of control | dose: 240.0 mg/kg/injection, schedule: Q01DX Z (oral), vehicle: saline 101 % of control | dose: 480.0 mg/kg/injection, schedule: Q01DX Z (oral), vehicle: saline 104 % of control
active: dose: 8.0 mg/kg/injection, schedule: Q01DX Z (ip), vehicle: carboxymethylcellulose (CMC) 150 % of control and 158 % of control | dose: 16.0 mg/kg/injection, schedule: Q01DX Z (ip), vehicle: carboxymethylcellulose (CMC) 225 % of control | dose: 30.0 mg/kg/injection, schedule: Q01DX Z (ip), vehicle: carboxymethylcellulose (CMC) 154 % of control | dose: 31.0 mg/kg/injection, schedule: Q01DX Z (ip), vehicle: carboxymethylcellulose (CMC) 250 % of control | dose: 62.0 mg/kg/injection, schedule: Q01DX Z (ip), vehicle: carboxymethylcellulose (CMC) 207 % of control and 320 % of control | dose: 120.0 mg/kg/injection, schedule: Q01DX Z (ip), vehicle: carboxymethylcellulose (CMC) 198 % of control | dose: 125.0 mg/kg/injection, schedule: Q01DX Z (ip), vehicle: carboxymethylcellulose (CMC) 200 % of control | dose: 240.0 mg/kg/injection, schedule: Q01DX Z (ip), vehicle: saline 233 % of control

CC(=O)NC(CSC(c1ccccc1)(c1ccccc1)c1ccccc1)C(=O)O (stereo unspecified)
inactive: [1] 102 % of control | [2] 96 % of control

O=C(c1cc(=O)[nH]c(=O)[nH]1)N(CCO)CCO
inactive: dose: 100.0 mg/kg/injection, schedule: Q01DX Z (ip), vehicle: saline 106 % of control | dose: 200.0 mg/kg/injection, schedule: Q01DX Z (ip), vehicle: saline 93 % of control

O=C(Nc1ccc2c(c1)C(=O)c1ccccc1C2=O)Nc1cc(C(F)(F)F)ccc1Cl
inactive: [3] 103 % of control | [4] 97 % of control | [5] 88 % of control

CCOC(=O)C(Cc1c[nH]c2ccccc12)NC(C)=O (stereo unspecified)
inactive: [6] 106 % of control | [7] 100 % of control | [8] 95 % of control

COc1cccc(OC)c1OS(=O)(=O)c1ccc(COc2ccc([N+](=O)[O-])cc2Cl)cc1
inactive: [9] 98 % of control | [10] 90 % of control | [11] 90 % of control

C=CCCC1(CCC)C(=O)NC(=O)NC1=O
inactive: dose: 75.0 mg/kg/injection, schedule: Q01DX001 (ip), vehicle: saline 103 % of control | dose: 150.0 mg/kg/injection, schedule: Q01DX001 (ip), vehicle: saline 113 % of control | dose: 300.0 mg/kg/injection, schedule: Q01DX001 (ip), vehicle: saline 101 % of control

CCOC(=O)NCC(C)(CCN1CCOCC1)c1cccc2ccccc12 (stereo unspecified)
inactive: dose: 25.0 mg/kg/injection, schedule: Q04DX003 (ip), vehicle: saline with Tween-80 93 % of control | dose: 50.0 mg/kg/injection, schedule: Q04DX003 (ip), vehicle: saline with Tween-80 97 % of control | [3] 94 % of control | [12] 103 % of control

CC(C)NC(=O)CCl
inactive: [1] 96 % of control | dose: 25.0 mg/kg/injection, schedule: Q04DX003 (ip), vehicle: saline 90 % of control | [2] 91 % of control | dose: 50.0 mg/kg/injection, schedule: Q04DX003 (ip), vehicle: saline 92 % of control | [13] 98 % of control | [14] 102 % of control and 92 % of control

CCOC(=O)NOS(=O)(=O)c1ccc([N+](=O)[O-])cc1
inactive: [12] 100 % of control | [15] 96 % of control | [16] 98 % of control

O=C1C(Cc2ccccc2)C(=O)N(Cc2ccccc2)C(=O)N1Cc1ccccc1
inactive: dose: 100.0 mg/kg/injection, schedule: Q01DX001 (ip), vehicle: carboxymethylcellulose (CMC) 88 % of control | dose: 200.0 mg/kg/injection, schedule: Q01DX001 (ip), vehicle: carboxymethylcellulose (CMC) 90 % of control | dose: 400.0 mg/kg/injection, schedule: Q01DX001 (ip), vehicle: carboxymethylcellulose (CMC) 88 % of control

CC/C(=N/OC(=O)N(CC)CC)c1ccccc1
inactive: [17] 96 % of control | [18] 91 % of control | dose: 400.0 mg/kg/injection, schedule: Q01DX001 (ip), vehicle: other 93 % of control

O=[N+]([O-])c1ccc2sc3ccccc3c2c1
inactive: [6] 108 % of control | [7] 97 % of control | [8] 101 % of control

O=C(O)C(O)CBr (stereo unspecified)
inactive: dose: 12.5 mg/kg/injection, schedule: Q01DX009 (ip), vehicle: saline with Tween-80 103 % of control | dose: 25.0 mg/kg/injection, schedule: Q01DX009 (ip), vehicle: saline with Tween-80 95 % of control | dose: 50.0 mg/kg/injection, schedule: Q01DX009 (ip), vehicle: saline with Tween-80 98 % of control

Oc1ccccc1OCc1ccccc1
inactive: dose: 50.0 mg/kg/injection, schedule: Q04DX003 (ip), vehicle: Klucel (hydroxypropylcellulose) (HPC) 92 % of control | [3] 101 % of control | [9] 94 % of control | [4] 97 % of control | [10] 92 % of control | [5] 102 % of control | [11] 100 % of control

O=C1C=CC(=O)N1CO (tested in a mixture with another compound)
inactive: [12] 97 % of control | [15] 92 % of control | [16] 91 % of control

CC(NC(=O)NC(C)(C)C)c1ccccc1 (stereo unspecified)
inactive: [6] 102 % of control | [7] 105 % of control | [8] 121 % of control

CC[P+](CCCCCCCCC[P+](CC)(Cc1ccccc1)c1ccccc1)(Cc1ccccc1)c1ccccc1 (stereo unspecified)
inactive: dose: 5.0 mg/kg/injection, schedule: Q01DX001 (ip), vehicle: saline 105 % of control

COc1ccc(CN(C)CCN(C)CCN(C)Cc2ccc(OC)cc2)cc1
inactive: dose: 25.0 mg/kg/injection, schedule: Q01DX009 (ip), vehicle: water 105 % of control | dose: 50.0 mg/kg/injection, schedule: Q01DX009 (ip), vehicle: water 99 % of control | dose: 100.0 mg/kg/injection, schedule: Q01DX009 (ip), vehicle: water 101 % of control

CC(C)CN(CC(=O)N1CC(=O)Nc2ccccc21)CC(C)C
inactive: [13] 94 % of control | [14] 95 % of control | dose: 200.0 mg/kg/injection, schedule: Q01DX009 (ip), vehicle: saline 87 % of control | dose: 200.0 mg/kg/injection, schedule: Q04DX003 (ip), vehicle: saline 95 % of control | dose: 400.0 mg/kg/injection, schedule: Q04DX003 (ip), vehicle: saline 92 % of control

Cn1c(=O)c2c(nc(OC3CCC=CO3)n2C)n(C)c1=O (stereo unspecified)
inactive: dose: 50.0 mg/kg/injection, schedule: Q01DX001 (ip), vehicle: other 98 % of control | [17] 95 % of control | [18] 88 % of control

CCN(CC)C(=O)COc1ccc(Cl)cc1
inactive: dose: 100.0 mg/kg/injection, schedule: Q04DX002 (ip), vehicle: saline 114 % of control | dose: 200.0 mg/kg/injection, schedule: Q04DX002 (ip), vehicle: saline 107 % of control | dose: 400.0 mg/kg/injection, schedule: Q04DX002 (ip), vehicle: saline 118 % of control

O=C(CCCCCl)Nc1cccc2c1C(=O)c1c(c(O)c3ccccc3c1O)C2=O
inactive: [12] 98 % of control | [15] 90 % of control | [16] 90 % of control
